We go through 16 molecules from US8178688B2, “Benzamidine derivatives, process for the preparation thereof and pharmaceutical composition comprising the same” (Dong Wha Pharmaceutical Co., Ltd., priority 2004, dated 2012).

Structures are written as SMILES. Read-outs that look alike come from different tables or passages of the source.

The subject of series [1] is osteoclast differentiation. Nature of the series: Inhibitory effects on osteoclast differentiation (co-culture of bone marrow cells with osteoblast, TRAP staining). Type of series: cell-based, mice. The conditions noted are these: co-culture of bone marrow cells and osteoblast, 7 days, TRAP-positive osteoclasts versus controls; for inhibition at 1 µM: Mus musculus, Osteoclast, 168 h, read-out: % inhibitory activity on osteoclastogenesis. In outline: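 Percent inhibition versus control is based on microscope counts of TRAP-positive osteoclasts (3 or more nuclei) after 7 days of compound exposure. Cultures paired ddY mouse marrow cells with ICR calvarial osteoblasts, driven by dexamethasone 10^−7M plus vitamin D3 10^−8M, with medium and compound changed every 2–3 days.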

Series [2] has as its system ovariectomized ddY mouse. As to the kind of experiment: Therapeutic effect in the ovariectomized osteoporetic mouse model (trabecular bone volume of the femur). The note with it: 50 mg/kg/day oral gavage for 4 weeks from 4 weeks after ovariectomy, salts (methansulfonic acid or HCl); for change in vivo at 50 mg/kg: Mus musculus, 672 h, read-out: Changes on TBV (% changes vs vehicle control). The series is classed as in vivo, ddY mice. How it is done: The therapeutic effects of each benzamidine derivates were evaluated on the ovariectomized ddY mouse. Benzamidine derivates were dosed from 4 weeks after operation for 4 weeks and the changes on the trabecular bone volume (TBV) of the femur were observed via histomorphometry.
Female ddY mice (6-wk old upon receipt, SLC, Japan) were used after acclimatization for 7 days. Animals were allocated 5 per polycarbonate cage in a temperature (20-25° C.) and humidity (30-35%) controlled room. Light:dark cycle was 12 hr:12 hr and feed (Samyang, Korea) and water were supplied free to access.
Salts of benzamidine derivates (Methansulfonic acid or HCl) were used for the test substances of this invention. Test substances are dissolved and/or suspended in injectable distilled water and administered at a dosage volume of 10 ml/kg by oral gavage. All test substances are dosed from 4 weeks after operation for 4 weeks at 50 mg/kg/day.
To induce estrogen-deficient osteoporosis, bilateral ovaries are removed and then closed by routine methods. Operation was conduct under Ketamine hydrochloride and xylazine hydrochloride anesthesia.
The left femur of each mouse were separated at sacrifice, and fixed in 10% neutral buffered formalin (NBF), then decalcified in decalcifying solution (24.4% formic acid, and 0.5N sodium hydroxide) for 5 days (mixed decalcifying solution was exchanges once a day for 5 days). After the dexalcification, the femur was embedded in paraffin, sectioned (3˜4 μm) and stained with hematoxylin-eosin stain.
TBV was calculated using automated image analysis (analySIS Image Processing; SIS, Germany) under magnification of ×200 in the uniform area of trochlea epiphyseal regions (growth plate regions were excluded) of prepared histological specimens. TBV was calculated as percentage (%) levels.
The changes of TBV compared to that of vehicle control are calculated as following Equation 1 to help the understanding of the efficacy of test substances. Percentage changes=[((TBV of a−TBV of b)/TBV of b)×100] Equation 1

Series [3] relates to mouse models of ovalbumin-induced asthma. As to the kind of experiment: Therapeutic effect in mouse model of asthma induced with ovalbumin (lung weight, total leukocytes in blood and BALF). The series is classed as in vivo, C57BL/6 mice. The conditions noted are these: for Changes on the lung weight, Absolute: 200 mg/kg oral once a day from sensitization, vehicle control 0.134 ± 0.012, sham 0.110 ± 0.009; for Changes on the lung weight, Relative (%) / Total leukocytes in peripheral blood (×10^3/1 mm^3) / Total leukocytes in BALF (×10^5/1 ml): 200 mg/kg oral once a day; for Changes on the lung weight, Relative (%): % of body weight, vehicle control 0.780 ± 0.103, sham 0.694 ± 0.049; for Total leukocytes in peripheral blood (×10^3/1 mm^3): vehicle control 14.49 ± 0.88, sham 10.27 ± 0.93; for Total leukocytes in BALF (×10^5/1 ml): vehicle control 75.68 ± 4.67, sham 51.75 ± 2.15. The protocol:
The benzamidine compounds were assated for therapeutic effect on allergic inflammation in mouse models of ovalbumin-induced asthma. Starting on the day of immunization the benzamidine compounds were dosed for 17 consecutive days. The experimental animals were re-exposed to ovalbumin 14 days after the sensitization and then sacrificed 3 days after the re-exposure. Changes in lung weight, cellular components of peripheral blood and bronchoalveolar lavage fluid, and lung histopathology were observed.
A total of 110 female C57BL/6 mice (7-week-old, SLC, Japan) were adapted to a laboratory environment for 6 days before being used in earnest experiments. While being housed at a densirt of five in a plastic cage, the experimental animals were breed in a breeding room with controlled temperature (20-25° C.) and humidity (30-35%). Under light-dark cycles of 12 hours, mice were allowed to have free access to feedstuff and tap water. While asthma was induced in 100 mice by ovalbumin, 10 mice were used as a non-treated group.
200 mg of benzamidine compounds (Methansulfonic acid or Hydrochloride) were completely dissolved in 5 ml of sterilized distilled water. The benzamidine compound in the solutions was orally administered at doses of 200 mg per kg of body weight once a day from the day of the sensitization with ovalbumin. The control group was administered with equal volumes of sterilized distilled water in the same manner.
A solution of 200 μg of ovalbumin (Grade VI; Sigma, st. Louis, Mo., USA) and 180 mg of aluminium hydroxide (Al(OH)3, dried powder gel; Aldrich, Milwaukee, USA) in 4 ml of physiological saline was allowed to stand at 4° C. overnight and was administered to the experimental animals (200 μl, abdominal injection) for sensitization. As for the non-treated group, a solution of only aluminium hydroxide in saline was injected. 15 days after sensitization, a 1.5% ovalbumin solution was sprayed in air using a nebulizer, followed by exposing the experimental animals to the spray for 10 min to induce asthma therein. The non-treated group was exposed only to saline in the same manner. All the experimental animals were sacrificed 3 days after the exposure.
On the final day of experiment, the lungs were separated form adjacent organs. The removed lungs were weight among individual animals, the relative weight of the lungs was calculated as a percentage of body weight using the following Equation 3. Relative weight of Lung(%)=(Absolute lung weight/Body weight)×100 Equation 3
On the final day of experiment, all the experimental animals were etherized and underwent laparotomy to expose the abdominal vena cava, from which 1 ml of blood was the taken. Using a hemocytometer, a blood sample was measured for total leukocyte counts in a ×10^3/1 mm^3 units.
On the final day of experiment, secretions present in bronchi and alveola were examined for cyrological constitution. After veing etherized, the experimental animals were operated to open the cervical region and the thorax. The jugular vein was allowed to bleed, followed by endotracheal intubation. 3 ml of phosphate buffered saline was injected twice through the tube and the thorax was massaged for 30 sec to obtain cell suspension from the lungs. Using a hemocytometer, a […] was measured for total leukocyte counts in a ×10^5/1 ml units.

For the molecule `Cc1nc(-c2ccc(OCCCCCOc3ccc(C(=N)NO)cc3)cc2)cs1` [Example 3, N-hydroxy-4-(5-[4-(2-methyl-1,3-thiazol-4-yl)phenoxy]pentoxy)-benzamidine], the melting point (in general, the temperature, or range, at which the solid turns liquid) was in the range of 139 to 140 °C. In addition, the inhibition at 1 µM in series [1] (1 μm) worked out at 41.4%.
Take `N=C(NO)c1ccc(OCCCCCOc2ccc(-c3csc(-c4ccccc4)n3)cc2)cc1` [Example 6, N-hydroxy-4-(5-[4-(2-phenyl-1,3-thiazol-4-yl)phenoxy]pentoxy)-benzamidine]: the melting point was in the range of 133 to 141 °C.
`Cc1sc(-c2ccccc2)nc1-c1ccc(OCCCCCOc2ccc(C(=N)NO)cc2)cc1` [Example 12, N-hydroxy-4-(5-[4-(5-methyl-2-phenyl-1,3-thiazol-4-yl)phenoxy]pentoxy)-benzamidine] gave a melting point of 124 to 130 °C.
For the molecule `Cc1nc(-c2ccc(OCCCCCOc3ccc(C(=N)NO)cc3)cc2)c(C2CCCC2)s1` [Example 43, N-hydroxy-4-(5-[4-(5-cyclopentyl-2-methyl-1,3-thiazol-4-yl)phenoxy]pentoxy)-benzamidine], the change in vivo at 50 mg/kg in series [2] was found to be 155%. In series [1] (1 μm), the inhibition at 1 µM turned out to be 98.6%.
`CCCNc1nc(-c2ccc(OCCCCCOc3ccc(C(=N)NO)cc3)cc2)c(CC2CCCC2)s1` [Example 111, N-hydroxy-4-(5-[4-(5-cyclopentylmethyl-2-propylamino-1,3-thiazol-4-yl)phenoxy]pentoxy)-benzamidine]: in series [2], the change in vivo at 50 mg/kg was 69.3%. The inhibition at 1 µM in series [1] (1 m) was 99.5%.
In the same order, the values of `CCCCc1sc(N(C)Cc2cccnc2)nc1-c1ccc(OCCCCCOc2ccc(C(=N)NO)cc2)cc1` [Example 145, N-hydroxy-4-(5-[4-(5-butyl-2-(methyl-(pyridin-3-yl-methyl)amino)-1,3-thiazol-4-yl)phenoxy]pentoxy)-benzamidine] are 91.7% and 96.2%.
For the molecule `CCCCc1sc(N(C)C)nc1-c1ccc(OCCCCCOc2ccc(C(=N)NO)cc2)cc1` [Example 152, N-hydroxy-4-(5-[4-(5-butyl-2-dimethylamino-1,3-thiazol-4-yl)phenoxy]pentoxy)-benzamidine], the change in vivo at 50 mg/kg in series [2] is 71.5%. The inhibition at 1 µM in series [1] (1 m) stood at 83.8%.
`Cc1sc(N2CCOCC2)nc1-c1ccc(OCCCCCOc2ccc(C(=N)NO)cc2)cc1` [Example 165, N-hydroxy-4-(5-[4-(5-methyl-2-morpholino-1,3-thiazol-4-yl)phenoxy]pentoxy)-benzamidine]: in series [2], the change in vivo at 50 mg/kg is 37.5%. Besides, the inhibition at 1 µM in series [1] (1 m) amounted to 66.9%.
For the molecule `N=C(NO)c1ccc(OCCCCCOc2ccc(-c3nc(N4CCCCC4)sc3CC3CCCC3)cc2)cc1` [Example 167, N-hydroxy-4-(5-[4-(5-cyclopentylmethyl-2-piperdino-1,3-thiazol-4-yl)phenoxy]pentoxy)-benzamidine], the “Changes on TBV (% changes vs vehicle control)” value in series [2] is recorded as 55.2%. In addition, the “% inhibitory activity on osteoclastogenesis” value in series [1] stood at 99.0%.
Regarding `N=C(NO)c1ccc(OCCCCCOc2ccc(-c3nc(N4CCOCC4)sc3CC3CCCC3)cc2)cc1` [Example 168, N-hydroxy-4-(5-[4-(5-cyclopentylmethyl-2-morpholino-1,3-thiazol-4-yl)phenoxy]pentoxy)-benzamidine], the change in vivo at 50 mg/kg in series [2] amounted to 56.6%. Further, in series [1] (1 m), the inhibition at 1 µM is 87%.
Take `CC(C)c1sc(N2CCOCC2)nc1-c1ccc(OCCCCCOc2ccc(C(=N)NO)cc2)cc1` [Example 169, N-hydroxy-4-(5-[4-(5-isopropyl-2-morpholino-1,3-thiazol-4-yl)phenoxy]pentoxy)-benzamidine]: the change in vivo at 50 mg/kg in series [2] came to 186%. Also, in series [3], the “Changes on the lung weight, Absolute” value is 0.113 ± 0.003 g; the “Changes on the lung weight, Relative (%)” value was 0.696 ± 0.032 %; the “Total leukocytes in peripheral blood (×10^3/1 mm^3)” value is given as 13.20 ± 2.22 ×10^3/1 mm^3; the “Total leukocytes in BALF (×10^5/1 ml)” value is recorded as 72.25 ± 7.95 ×10^5/1 ml. Also, the inhibition at 1 µM in series [1] (1 m) came out at 83.3%.
As for `Cc1nc(-c2ccc(OCCCCCNc3ccc(C(=N)NO)cc3)cc2)c(C(C)C)s1` [Example 177, N-hydroxy-4-(5-[4-(5-isopropyl-2-methyl-1,3-thiazol-4-yl)phenoxy]-pentylamino)-benzamidine], the change in vivo at 50 mg/kg in series [2] is 88.7%. Further, the inhibition at 1 µM in series [1] (1 m) was found to be 96.1%.
Consider `Cc1nc(-c2ccc(OCC=CCOc3ccc(C(=N)NO)cc3)cc2)c(C(C)C)s1` [Example 184, N-hydroxy-4-(4-[4-(5-isopropyl-2-methyl-1,3-thiazol-4-yl)-phenoxy]-2-butenyloxy)-benzamidine], for which, in series [2], the change in vivo at 50 mg/kg was 147%. The inhibition at 1 µM in series [1] (1 m) stood at 74.5%.
Take `Cc1nc(-c2ccc(OCc3ccc(COc4ccc(C(=N)NO)cc4)cc3)cc2)c(C(C)C)s1` [Example 185, N-hydroxy-4-(4-[4-(5-isopropyl-2-methyl-1,3-thiazol-4-yl)-phenoxymethyl]-benzyloxy)-benzamidine]: the change in vivo at 50 mg/kg in series [2] was 152%. Besides, in series [3], the “Changes on the lung weight, Absolute” value is on record as 0.116 ± 0.003 g; the “Changes on the lung weight, Relative (%)” value came out at 0.720 ± 0.061%; the “Total leukocytes in peripheral blood (×10^3/1 mm^3)” value is listed as 11.90 ± 1.45 # ×10^3/1 mm^3; the “Total leukocytes in BALF (×10^5/1 ml)” value is reported as 66.47 ± 7.41 # ×10^5/1 ml. The inhibition at 1 µM in series [1] (1 m) is 89.4%.
As to `Cc1nc(-c2ccc(OCCCCCOc3ccc(C(=N)NO)c(F)c3)cc2)c(C(C)C)s1` [Example 187, N-hydroxy-2-fluoro-4-(5-[4-(5-isopropyl-2-methyl-1,3-thiazol-4-yl)-phenoxy]-pentoxy)-benzamidine], the change in vivo at 50 mg/kg in series [2] stood at 117%. Besides, in series [1] (1 m), the inhibition at 1 µM was found to be 92.5%.
As to `Cc1nc(-c2ccc(OCCCCCOc3ccc(C(=N)NO)c(O)c3)cc2)c(C(C)C)s1` [Example 188, 2,N-dihydroxy-4-(5-[4-(5-isopropyl-2-methyl-1,3-thiazol-4-yl)-phenoxy]-pentoxy)-benzamidine], in series [2], the change in vivo at 50 mg/kg worked out at 92%. Further, the inhibition at 1 µM in series [1] (1 m) is 82.6%.
